For three compounds, Kd results are on record in PMC6509186, “Nontypeable Haemophilus influenzae Has Evolved Preferential Use of N-Acetylneuraminic Acid as a Host Adaptation” (mBio, 2019).

The test has as its target T1, CMP-Neu5Ac synthetase (SiaB) (Haemophilus influenzae, UniProt Q57140).
T1 construct: gene neuA; full-length siaB in pET51-Ek/LIC, N-terminal 6xHis tag (so in the source) kept; expressed in E. coli, Talon purified; 24,800 Da; amine-coupled to CM5 chip
In words: surface plasmon resonance, immobilised SiaB. The format is binding.

[1] abbreviates: 20 mM MgCl2, 0.2 M MOPS, pH 8.1, 37°C, enzyme amine-coupled to CM5 chip.

SMILES strings stand for the structures. Like-named read-outs stand apart in the source and are kept apart here.

`Nc1ccn([C@@H]2O[C@H](COP(=O)(O)OP(=O)(O)OP(=O)(O)O)[C@@H](O)[C@H]2O)c(=O)n1` [CTP] registered a Kd of more than 200000 nM.
`O=C(CO)N[C@H]1[C@H]([C@H](O)[C@H](O)CO)OC(O)(C(=O)O)C[C@@H]1O` (stereo partly drawn) [Neu5Gc]: binding under setting [1] was put at a Kd of 1000 nM.
Same read-out and setting: the same measure for `CC(=O)N[C@H]1[C@H]([C@H](O)[C@H](O)CO)OC(O)(C(=O)O)C[C@@H]1O` (stereo partly drawn) [Neu5Ac]: 1.2 nM.
